{
  "source": "patent US20100249138A1",
  "about": "“MPZP: A SMALL MOLECULE CORTICOTROPIN-RELEASING FACTOR TYPE 1 RECEPTOR (CRF1) ANTOGONIST” (priority 2007, published 2010)",
  "key": {"[1]": {"test_system": "CRF2 receptors", "test": "CRF receptor autoradiography, rat brain sections, CRF2-rich regions", "assay_type": "binding", "protocol": "For CRF receptor autoradiography, brain tissue was sectioned coronally (20 μm) using a cryostat (−17° C.). Sections were mounted on Superfrost Plus+ charged glass slides (Fisher Scientific, Pittsburgh, Pa.), permitted to dry completely, and stored in airtight boxes at −80° C. until the day of autoradiography. Autoradiography was performed using standard procedures based on the previous characterization of [^125I]Tyr^0-sauvagine [Grigoriadis et al., Mol. Pharmacol. (1996) 50:679-686].\nSlides containing triplicate adjacent brain sections were thawed to room temperature and permitted to dry completely. Each section then was outlined using a PAP pen (Calbiochem, San Diego, Calif.). Sections were incubated in assay buffer (DPBS with 10 mM MgCl2, 2 mM EGTA, 1 tablet/100 ml protease inhibitor, 0.15% bovine serum albumin) for 15 minutes to remove endogenous ligand. Slides then were incubated under one of four conditions: (1) 0.2 nM […] to determine total binding; (2) 0.2 nM radiolabeled sauvagine+1 μM R121919 (below)\nto determine non-CRF1 (e.g., CRF2) receptor binding; (3) 0.2 nM radiolabeled sauvagine+3 μM MPZP to determine non-CRF1 (e.g., CRF2) receptor binding using the experimental compound under study; (4) 0.2 nM radiolabeled sauvagine+0.3 μM unlabeled D-Phe-CRF12-41, a subtype-nonspecific CRF receptor antagonist, to determine non-CRF1/CRF2 (e.g., nonspecific binding).\nAfter 2 hours incubation at room temperature, unbound radioligand was removed via a brief dip in ice-cold assay buffer, followed by two 5 minute rinses in ice-cold washing buffer (DPBS with 0.01% Triton-X100) and one brief dip in ice-cold distilled, deionized H2O. Slides then were dried at room temperature and exposed to Kodak Biomax MR film for 2 days. Unlabeled peptides (sauvagine, D-Phe-CRF12-41) were generously provided by Dr. Jean Rivier (The Salk Institute, La Jolla, Calif.). Images were captured using a light box and digital camera computer workstation using a MTI CCDC72 digital camera equipped with a 90 mm Tamron macro lens. […]"}, "[2]": {"test_system": "binge drinking of sweetened alcohol", "details": "Ji et al. 2007, in review; cited from earlier work"}, "[3]": {"test_system": "cocaine self-administration", "test": "Cocaine self-administration in short access (ShA) and long access (LgA) rats", "assay_type": "in vivo, rat", "details": "for cocaine intake compared with vehicle: 45 minutes before session"}, "[4]": {"test_system": "62 other receptors, transporters, and ion channels", "test": "Novascreen side-effect potential screening assay (GEN SEP I panel)", "assay_type": "binding", "details": "10 μM", "protocol": "Specificity of MPZP for other receptor, transporter, and ion channel targets was determined at 1 and 10 μM concentrations via a commercial screening service (Novascreen, GEN SEP I panel, Hanover, Md.)."}, "[5]": {"biological_target": "T1, CRF1 receptors (Rattus norvegicus, UniProt P35353)", "T1 sequence (P35353 24-415)": "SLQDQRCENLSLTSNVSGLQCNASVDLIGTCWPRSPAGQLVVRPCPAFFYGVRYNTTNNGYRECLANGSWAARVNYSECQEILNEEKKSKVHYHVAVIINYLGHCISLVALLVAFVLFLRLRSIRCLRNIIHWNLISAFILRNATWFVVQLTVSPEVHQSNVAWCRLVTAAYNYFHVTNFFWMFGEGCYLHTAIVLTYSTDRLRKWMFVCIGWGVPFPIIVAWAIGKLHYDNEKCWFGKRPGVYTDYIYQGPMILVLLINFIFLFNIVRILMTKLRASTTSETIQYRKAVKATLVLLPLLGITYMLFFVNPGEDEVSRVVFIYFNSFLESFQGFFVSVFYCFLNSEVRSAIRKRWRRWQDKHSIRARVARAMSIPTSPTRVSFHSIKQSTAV", "test": "[125I]-Tyr0-sauvagine competition binding, rat cerebellar membrane homogenates", "design": "from tissue; host or cells: rat cerebellum, membrane homogenate", "details": "read-out: IC50, displacement of specific [125I]-Tyr0-sauvagine binding", "protocol": "Binding activity of MPZP was determined in a competition assay using […] (2200 Ci/mmol; Perkin Elmer, Waltham, Mass.) as the radioligand. Cerebellum was homogenized in homogenizing buffer (Dulbecco's phosphate-buffered saline [PBS]:1.5 mM KH2PO4, 8.1 mM Na2HPO4, 2.7 mM KCl, 138 mM NaCl, pH 7.2, supplemented with 10 mM MgCl2, 2 mM EGTA) using a Polytron (Dispersing and Mixing Technology, Kinematica, Littau-Lucerne, Switzerland) at setting 6 for 2×15 seconds on ice. The homogenate was centrifuged at 45,000×g for 20 minutes at 4° C. The pellet was resuspended and spun at 45,000×g for 20 minutes at 4° C. The final pellet was resuspended in assay buffer (homogenizing buffer supplemented with protease inhibitor; 1 tablet/10 ml; Sigma CAT#58829-20TAB, St. Louis, Mo., pH 7.4) using a Polytron.\nMed. Chem. (2000) 8:181-189], whose structural formula is shown below.\nTotal binding was determined using assay buffer in lieu of a CRF1 antagonist, and nonspecific binding was determined in the presence of 1 μM unlabeled sauvagine. The final radioligand concentration was 0.2 nM, and the reaction was incubated at room temperature for 2 hours. […] The pellet-containing tip was cut off and counted in an automated 10-detector gamma counter (MicroMedic Apex, ICN Biomedical, Costa Mesa, Calif.) at 80% efficiency. […]"}},
  "data": [
    {"molecule": "COCCN(CCOC)c1cc(C)nc2c(-c3ccc(OC)cc3C)c(C)nn12", "note": "[MPZP, N,N-bis(2-methoxyethyl)-3-(4-methoxy-2-methylphenyl)-2,5-dimethyl-pyrazolo[1,5-a]pyrimidin-7-amine]", "values": [
      {"measurement": "displacement of [125I]-Tyr0-sauvagine binding from CRF2-rich regions", "setting": "[1]; 3 μM, rat lateral septum, ventromedial hypothalamus, choroid plexus, cerebral arterioles", "result": "did not displace"},
      {"measurement": "specificity for CRF2 receptors", "setting": "[1]; at up to 1 μM concentrations", "result": "no measurable specificity"},
      {"measurement": "displacement of [125I]-Tyr0-sauvagine binding (CRF2-like binding)", "setting": "[1]; rat lateral septum or ventromedial hypothalamus, concentration printed 1 mM", "result": "does not displace"},
      {"measurement": "nondependent binge drinking of sweetened alcohol", "setting": "[2]", "result": "had no effect"},
      {"measurement": "slope of linear trend dose function on cocaine intake", "setting": "[3]; LgA rats", "result": "−0.601±0.176"},
      {"measurement": "cocaine intake compared with vehicle", "setting": "[3]; LgA rats, 10 mg/kg s.c.", "result": "significant decrease"},
      {"measurement": "cocaine intake compared with vehicle", "setting": "[3]; LgA rats, 27.5 mg/kg s.c.", "result": "significant decrease"},
      {"measurement": "slope of linear trend dose function on cocaine intake", "setting": "[3]; ShA rats", "result": "−0.254±0.106"},
      {"measurement": "cocaine intake compared with vehicle", "setting": "[3]; ShA rats, 27.5 mg/kg s.c.", "result": "significant decrease"},
      {"measurement": "activity at 62 other receptors, transporters, and ion channels", "setting": "[4]", "result": "did not exhibit high activity"},
      {"measurement": "IC50", "setting": "[5]", "result": 6.1, "unit": "nM"}
    ]}
  ]
}
